# Test results published in patent US20090181948A1, “DIAMINE DERIVATIVE” (KYOWA HAKKO KOGYO CO., LTD., priority 2005, published 2009).
# Molecular target: T1, histamine H3 receptor (Rattus norvegicus, UniProt Q9QYN8)
# T1 construct: from tissue; host or cells: rat striatum (Sprague-Dawley, male, 6 weeks), membrane homogenate
# Test: Histamine H3 receptor binding assay ([3H]-Nα-methylhistamine binding to rat striatum homogenate)
# Conditions: 1 μmol/L test compound; [3H]-Nα-methylhistamine 1 nmol/L; striata of Sprague-Dawley male rats, 25° C., 1 hour; read-out: Inhibition ratio of [3H]-Nα-methylhistamine binding
# Procedure: To the striata of Sprague-Dawley male rats (6 weeks of age), a 10-fold volume of lysis buffer {50 mmol/L [[…] (Tris)]/HCl (pH 7.4), 5 mmol/L ethylenediaminetetraacetic acid (EDTA), a protease inhibitor mixture [1 mg/mL phenylmethylsulfonyl fluoride (PMSF), 1 μg/mL pepstatin A, 1 μg/mL leupeptin, 1 μg/mL chymostatin]} was added and the striata were homogenized. The resulting homogenate was centrifuged (30,000×g, 4° C., 30 min), and the obtained precipitate was resuspended in a 10-fold volume of lysis buffer, followed by centrifugation under the same condition. To the obtained precipitate, a 3-fold volume of lysis buffer was added to suspend the precipitate, and the resulting tissue homogenate was used for a test.
# A test compound was dissolved in an assay buffer [50 mmol/L Tris/HCl (pH 7.4), 5 mmol/L EDTA], and [^3H]-N^α-methylhistamine (1 nmol/L) and the tissue homogenate (20 μg, in terms of protein amount) were added thereto, and then, the mixture was incubated at 25° C. for 1 hour. Then, the reaction was terminated by rapid suction filtration on a glass filter [GF/B: Whatman, previously soaked in 0.3 w/v % polyethylenimine for about 30 min]. Then, the glass filter was washed three times with 3 mL of assay buffer. This glass filter was transferred into a scintillation vial and dried at 60° C. for 30 minutes. Then, 0.5 mL of Ultimagold (Perkin Elmer) was added thereto, and the radioactivity (binding amount of [^3H]-N^α-methylhistamine) was measured using a liquid scintillation counter. The obtained value was used as a binding amount in the presence of the test compound. The same procedure as described above was carried out in the absence of the test compound, and the binding amount of [^3H]-N^α-methylhistamine obtained at this time was used as a binding amount in the absence of the test compound. Further, the binding amount of [^3H]-N^α-methylhistamine obtained in the presence of 10 μmol/L thioperamide was used as a non-specific binding amount. An inhibitory action of [^3H]-N^α-methylhistamine binding was represented by an inhibition ratio in terms of 1 μmol/L of the test compound calculated by the following Equation (1).
# Inhibition ratio(%)={1−[(Binding amount in the presence of test compound)−(Non-specific binding amount)]/[(Binding amount in the absence of test compound)−(Non-specific binding amount)]}×100 (1)
# T1 sequence (Q9QYN8 whole entry): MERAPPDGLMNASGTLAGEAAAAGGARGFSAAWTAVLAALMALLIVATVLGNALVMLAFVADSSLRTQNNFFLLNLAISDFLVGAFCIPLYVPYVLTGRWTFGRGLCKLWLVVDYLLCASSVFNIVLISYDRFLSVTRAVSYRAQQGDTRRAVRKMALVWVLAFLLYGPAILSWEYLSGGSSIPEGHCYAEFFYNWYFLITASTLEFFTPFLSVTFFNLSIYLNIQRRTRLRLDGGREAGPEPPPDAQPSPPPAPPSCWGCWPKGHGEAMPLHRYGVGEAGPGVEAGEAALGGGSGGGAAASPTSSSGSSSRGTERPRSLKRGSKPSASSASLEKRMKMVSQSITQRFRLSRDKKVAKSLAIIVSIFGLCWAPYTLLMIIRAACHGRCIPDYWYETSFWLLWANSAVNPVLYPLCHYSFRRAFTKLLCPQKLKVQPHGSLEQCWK
row,SMILES,inhibition at 1 µM [%]
1,"N#CN=C1N(CCCN2CCCCC2)CCN1CCCN1CCCCC1 [Compound 139, 1,3-Bis(3-piperidinopropyl)imidazolidin-2-ylidene Cyanoamide Difumarate]",≥ 80
2,"CC1CCCN1CCCN1CCN(CCCN2CCCC2C)C1=NC#N (stereo not shown) [Compound 140, 1,3-Bis[3-(2-methylpyrrolidin-1-yl)propyl]imidazolidin-2-ylidenecyanoamide Difumarate]",≥ 80
3,"CC1CCCN1CCCN1CCN(CCCN2CCCC2C)C1=O (stereo not shown) [Compound 141, 1,3-Bis[3-(2-methylpyrrolidin-1-yl)propyl]imidazolidine-2-one]",≥ 80
4,"CC1CCCN1CC1CCN(C(NCCN2CCCCC2)=C(C#N)C#N)CC1 (stereo not shown) [Compound 148, {[4-(2-Methylpyrrolidin-1-ylmethyl)piperidino](2-piperidinoethylamino)methylene}malononitrile]",≥ 80
5,"C[C@@H]1CCCN1CCN(C)C(=C(C#N)C#N)N1CCC(CN2CCCCC2)CC1 [Compound 151, ({N-methyl-N-[2-((R)-2-methylpyrrolidin-1-yl)ethyl]amino}(4-piperidinomethylpiperidino)methylene)malononitrile]",≥ 80
6,"C[C@H]1CCCN1CCN(C)C(=C(C#N)C#N)N1CCC(CN2CCCCC2)CC1 [Compound 153, ({N-methyl-N-[2-((S)-2-methylpyrrolidin-1-yl)ethyl]amino}(4-piperidinomethylpiperidino)methylene)malononitrile]",≥ 80
7,"CC1CCCN1CC1CCN(C(=C(C#N)C#N)N(C)CCN2CCC[C@H]2C)CC1 (stereo partly drawn) [Compound 155, ({N-methyl-N-[2-((R)-2-methylpyrrolidin-1-yl)ethyl]amino}[4-(2-methylpyrrolidin-1-ylmethyl)piperidino]methylene)malononitrile]",≥ 80
8,"CC1CCCN1CC1CCN(C(=C(C#N)C#N)N(C)CCN2CCC[C@@H]2C)CC1 (stereo partly drawn) [Compound 157, ({N-methyl-N-[2-((S)-2-methylpyrrolidin-1-yl)ethyl]amino}[4-(2-methylpyrrolidin-1-ylmethyl)piperidino]methylene)malononitrile]",≥ 80
9,"N#CC(C#N)=C(NCCCN1CCC(F)(F)C1)N1CCC(N2CCCCC2)CC1 [Compound 168, {[3-(3,3-Difluoropyrrolidin-1-yl)propylamino](4-piperidinopiperidino)methylene}malononitrile]",≥ 80
10,"CN(CCCN1CCC(F)(F)C1)C(=C(C#N)C#N)N1CCC(N2CCCCC2)CC1 [Compound 169, ({N-[3-(3,3-difluoropyrrolidin-1-yl)propyl]-N-methylamino}(4-piperidinopiperidino)methylene)malononitrile]",≥ 80
11,"CC1CCCN1CCCNC(=C(C#N)C#N)N1CCC(N2CCCCC2)CC1 (stereo not shown) [Compound 170, {[3-(2-Methylpyrrolidin-1-yl)propylamino](4-piperidinopiperidino)methylene}malononitrile]",≥ 80
12,"N#CC(C#N)=C(NCCCN1CCCCC1)N1CCC(CN2CCCCC2)CC1 [Compound 172, [(4-Piperidinomethylpiperidino)(3-piperidinopropylamino)methylene]malononitrile]",≥ 80
13,"CC1CCCN1CCCNC(=C(C#N)C#N)N1CCC(CN2CCCCC2)CC1 (stereo not shown) [Compound 173, {[3-(2-Methylpyrrolidin-1-yl)propylamino](4-piperidinomethylpiperidino)methylene}malononitrile]",≥ 80
14,"CC1CCCN1CCCNC(=C(C#N)C#N)N1CCC(CN2CCCC2C)CC1 (stereo not shown) [Compound 174, {[4-(2-Methylpyrrolidin-1-ylmethyl)piperidino][3-(2-methylpyrrolidin-1-yl)propylamino]methylene}malononitrile]",≥ 80
15,"CC(C)N1CCC(NC(=C(C#N)C#N)N2CCC(CN3CCCCC3)CC2)CC1 [Compound 178, [(1-Isopropylpiperidin-4-ylamino)(4-piperidinomethylpiperidino)methylene]malononitrile]",≥ 80
16,"CC(C)N1CCC(N2CCN(CCC3CCCN3C)C2=C(C#N)C#N)CC1 (stereo not shown) [Compound 187, {1-(1-Isopropylpiperidin-4-yl)-3-[2-(1-methylpyrrolidin-2-yl)ethyl]imidazolidin-2-ylidene}malononitrile]",≥ 80

row,SMILES,inhibition at 1 µM [%]
1,"C[C@H]1CCCN1CCCCN1CCN(CCN2CCC[C@@H]2C)C1=C(C#N)C#N [Compound 190, {1-[4-((S)-2-methylpyrrolidin-1-yl)butyl]-3-[2-((S)-2-methylpyrrolidin-1-yl)ethyl]imidazolidin-2-ylidene}malononitrile]",≥ 80
2,"C[C@@H]1CCCN1CCCCN1CCN(CCN2CCC[C@H]2C)C1=C(C#N)C#N [Compound 191, {1-[4-((R)-2-methylpyrrolidin-1-yl)butyl]-3-[2-((R)-2-methylpyrrolidin-1-yl)ethyl]imidazolidin-2-ylidene}malononitrile]",≥ 80
3,"CC1CCCN(CCN2CCN(CCCN3CCC[C@@H]3C)C2=C(C#N)C#N)C1 (stereo partly drawn) [Compound 199, {3-[2-(3-Methylpiperidino)ethyl]-1-[3-((S)-2-methylpyrrolidin-1-yl)propyl]imidazolidin-2-ylidene}malononitrile]",≥ 80
4,"C[C@H]1CCCN1CCCN1CCN(CCCN2CCSCC2)C1=C(C#N)C#N [Compound 202, {1-[3-((S)-2-methylpyrrolidin-1-yl)propyl]-3-[3-(thiomorpholin-1-yl)propyl]imidazolidin-2-ylidene}malononitrile]",≥ 80
5,"CC1CCCN1CCCN1CCN(CCCN2CCC(=O)CC2)C1=C(C#N)C#N (stereo not shown) [Compound 203, {1-[3-(2-Methylpyrrolidin-1-yl)propyl]-3-[3-(4-oxopiperidino)propyl]imidazolidin-2-ylidene}malononitrile]",≥ 80
6,"CC(C)N1CCC(N2CCN(CCN3CCCCC3)C2=C(C#N)C#N)CC1 [Compound 207, [1-(1-Isopropylpiperidin-4-yl)-3-(2-piperidinoethyl)imidazolidin-2-ylidene]malononitrile]",≥ 80
7,"CC(C)N1CCC(N2CCN(CCN3CCC[C@@H]3C)C2=C(C#N)C#N)CC1 [Compound 210, {1-(1-Isopropylpiperidin-4-yl)-3-[2-((S)-2-methylpyrrolidin-1-yl)ethyl]imidazolidin-2-ylidene}malononitrile]",≥ 80
8,"N#CCN1CCC(N2CCN(CCCN3CCCCC3)C2=C(C#N)C#N)CC1 [Compound 214, [1-(1-Cyanomethylpiperidin-4-yl)-3-(3-piperidinopropyl)imidazolidin-2-ylidene]malononitrile]",≥ 80
9,"CC(C)N1CCC(N2CCN(CCCN3CCCC3C)C2=C(C#N)C#N)CC1 (stereo not shown) [Compound 219, {1-(1-Isopropylpiperidin-4-yl)-3-[3-(2-methylpyrrolidin-1-yl)propyl]imidazolidin-2-ylidene}malononitrile]",≥ 80
10,"N#CC(C#N)=C1N(CCCN2CCOCC2)CCN1C1CCN(CCF)CC1 [Compound 222, {1-[1-(2-Fluoroethyl)piperidin-4-yl]-3-(3-morpholinopropyl)imidazolidin-2-ylidene}malononitrile]",≥ 80
11,"C=CCN1CCC(N2CCN(CCCN3CCCCC3)C2=C(C#N)C#N)CC1 [Compound 227, [1-(1-Allylpiperidin-4-yl)-3-(3-piperidinopropyl)imidazolidin-2-ylidene]malononitrile]",≥ 80
12,"N#CC(C#N)=C1N(CCCN2CCCCC2)CCN1C1CCN(CC2CC2)CC1 [Compound 229, [1-(1-Cyclopropylmethylpiperidin-4-yl)-3-(3-piperidinopropyl)imidazolidin-2-ylidene]malononitrile]",≥ 80
13,"CC(C)N1CCC(N2CCCN(CCCN3CCCCC3)C2=C(C#N)C#N)CC1 [Compound 238, [1-(1-Isopropylpiperidin-4-yl)-3-(3-piperidinopropyl)tetrahydropyrimidin-2-ylidene]malononitrile]",≥ 80
14,"C[C@@H]1CCCN1CCN1CCN(CCCN2CCC[C@@H]2C)C1=C(C#N)S(=O)(=O)c1ccccc1 [Compound 243, {3-[2-((R)-2-methylpyrrolidin-1-yl)ethyl]-1-[3-((S)-2-methylpyrrolidin-1-yl)propyl]imidazolidin-2-ylidene}benzenesulfonylacetonitrile]",≥ 80
15,"CC1CCCN1CCCN1CCN(CCCN2CCCC2C)C1=C(C#N)S(=O)(=O)c1ccccc1 (stereo not shown) [Compound 244, {1,3-Bis[3-(2-methylpyrrolidin-1-yl)propyl]imidazolidin-2-ylidene}benzenesulfonylacetonitrile]",≥ 80
